Experimental data taken from patent US6579861B2, “1α-hydroxy-2-methylene-19-nor-homopregnacalciferol and its uses” (Wisconsin Alumni Research Foundation, priority 2000, dated 2003).
Entries after “also recorded” stand apart in the source; their conditions may differ.

What was measured:
Sprague-Dawley rats [1] = assay: Intestinal calcium transport after chronic i.p. doses in vitamin D-deficient rats; format: in vivo, rat; settings: for Intestinal Calcium Transport (S/M): vitamin D-deficient rats, low Ca diet, average ± SE, 5 animals
Protocol: (§1) Male, weanling Sprague-Dawley rats were placed on Diet 11 (0.47% Ca) diet+AEK for 11 days, followed by Diet 11 (0.02% Ca)+AEK for 31 days. Dosing (i.p.) began 7 days prior to sacrifice. Doses were given on a daily basis, 24 hours apart. The first 10 cm of the intestine was collected for gut transport studies and serum was collected for bone Ca mobilization analysis. The results are reported in Table 1 and illustrated in the graph of FIG. 2.

Sprague-Dawley rats [2] = assay: Serum calcium (bone calcium mobilization) after chronic i.p. doses in vitamin D-deficient rats; format: in vivo, rat; settings: for Serum Calcium (bone calcium mobilization): vitamin D-deficient rats, low Ca diet, average ± SE, 5 animals
Protocol: as §1

Sprague-Dawley rats [3] = assay: Pre-dose and post-dose serum calcium (bone mobilization) after a single oral dose in rats; format: in vivo, rat; settings: average of 6 rats; for Post-Dose serum calcium: about 24 h after a single 1 nmol oral dose (gavage, vegetable oil); for Pre-Dose serum calcium: baseline, about 24 h before sacrifice, before the 1 nmol oral dose
Protocol: Weanling, male Sprague-Dawley rats (6/group) were placed on a vitamin D-deficient diet for a total of 5 weeks. During the first three weeks, the animals were fed a normal calcium diet (Diet 11+0.47% Ca+AEK supplement) and the last two weeks they were fed a low calcium diet (Diet 11+0.02% Ca+AEK supplement). Approximately 24 hours prior to sacrifice, animals were tail bled and then dosed with 1 nmol of the respective compounds. The doses were delivered orally in 100 microliters of vegetable oil by gavage. Serum was collected approximately 24 hour post-dose and it, along with the pre-dose serum, were subjected to total calcium analysis using atomic absorption spectrometry.

[4] = molecular target: T1, vitamin D pig intestinal nuclear receptor (Sus scrofa, UniProt A3RGC1); assay: Competitive binding of [3H]-1,25-(OH)2-D3 to the porcine intestinal vitamin D receptor; settings: FIG. 1, result in words
T1 construct: from tissue; host or cells: pig intestine (nuclear receptor preparation)
T1 sequence (A3RGC1 1-427): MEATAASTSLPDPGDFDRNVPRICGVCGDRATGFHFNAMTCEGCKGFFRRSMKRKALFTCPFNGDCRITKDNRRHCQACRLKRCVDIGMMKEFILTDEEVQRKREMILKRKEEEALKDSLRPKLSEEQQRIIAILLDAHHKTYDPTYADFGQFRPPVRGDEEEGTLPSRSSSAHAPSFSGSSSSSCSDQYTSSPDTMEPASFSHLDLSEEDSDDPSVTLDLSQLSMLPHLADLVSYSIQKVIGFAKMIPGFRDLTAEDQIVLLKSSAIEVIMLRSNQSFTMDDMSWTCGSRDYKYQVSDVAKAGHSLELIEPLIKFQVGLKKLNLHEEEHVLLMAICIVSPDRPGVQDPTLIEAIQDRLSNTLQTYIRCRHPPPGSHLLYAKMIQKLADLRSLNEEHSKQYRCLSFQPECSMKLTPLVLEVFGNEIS
Description: FIG. 1 is a graph illustrating the relative activity of 1α-hydroxy-2-methylene-19-nor-homopregnacalciferol and 1α,25-dihydroxyvitamin D3 to compete for binding of [^3H]-1,25-(OH)2-D3 to the vitamin D pig intestinal nuclear receptor;
The introduction of a methylene group to the 2-position of 1α-hydroxy-19-nor-homopregnacalciferol had little or no effect on binding to the porcine intestinal vitamin D receptor, as compared to 1α,25-dihydroxyvitamin D3.
Competitive binding of the analogs to the porcine intestinal receptor was carried out by the method described by Dame et al (Biochemistry 25, 4523-4534, 1986).

HL-60 cells = assay: Differentiation of HL-60 promyelocytes into monocytes; format: cell-based; settings: FIG. 4; result in words
Protocol: FIG. 4 is a graph illustrating the percent HL-60 cell differentiation as a function of the concentration of 1α-hydroxy-2-methylene-19-nor-homopregnacalciferol and of 1α,25-dihydroxyvitamin D3;
The differentiation of HL-60 promyelocytic into monocytes was determined as described by Ostrem et al (J. Biol. Chem. 262, 14164-14171, 1987).

[5] = test system: 24-hydroxylase (240Hase) gene promoter in ROS 17/2.8 (bone) cells; assay: Transcriptional activity, 24-hydroxylase promoter luciferase reporter in bone cells; format: cell-based
Protocol: (§2) Transcriptional activity was measured in two different cell lines. ROS 17/2.8 (bone) or LLC (kidney) cells were stably transfected with a 24-hydroxylase (240Hase) gene promoter upstream of a luciferase reporter gene (Arbour et al, 1998). Cells were given a range of doses. Sixteen hours after dosing the cells were harvested and luciferase activities were measured using a luminometer. The EC50 of 1α-hydroxy-2-methylene-19-nor-homopregnacalciferol is about 10 times lower in bone cells than kidney cells. […] The graphs of FIGS. 5 and 6 are representative of 4 to 5 independent experiments. In FIGS. 5 and 6, RLU means relative luciferase units.

[6] = test system: 24-hydroxylase (240Hase) gene promoter in LLC (kidney) cells; assay: Transcriptional activity, 24-hydroxylase promoter luciferase reporter in kidney cells; format: cell-based; settings: 16 h after dosing, FIG. 6, result in words
Protocol: as §2

[7] = listed as 1α-hydroxy-2-methylene-19-nor-homopregnacalciferol

SMILES | Intestinal Calcium Transport (S/M) (Sprague-Dawley rats [1]; 250 pmol/day/7 days i.p.) | Intestinal Calcium Transport (S/M) (Sprague-Dawley rats [1]; 500 pmol/day/7 days i.p.) | Serum Calcium (bone calcium mobilization) (Sprague-Dawley rats [2]; 250 pmol/day/7 days i.p.) [mg/100 ml] | Serum Calcium (bone calcium mobilization) (Sprague-Dawley rats [2]; 500 pmol/day/7 days i.p.) [mg/100 ml] | Post-Dose serum calcium (Sprague-Dawley rats [3]) [mg/dL] | Pre-Dose serum calcium (Sprague-Dawley rats [3]) [mg/dL] | Binding to the vitamin D receptor compared to 1,25-(OH)2D3 [4, 7] | Binding to the vitamin D receptor compared to 1,25-(OH)2D3 ([4]; listed as 2 MHP) | Intestinal calcium transport activity compared to 1,25(OH)2D3 (Sprague-Dawley rats [1]; Table 1 and FIG. 2, result in words) | Bone calcium mobilization activity (raising serum calcium) compared to 1,25(OH)2D3 (Sprague-Dawley rats [2]; Table 1, FIG. 3 and FIG. 7, result in words) | HL-60 differentiation potency compared to 1,25(OH)2D3 (HL-60 cells) | EC50 in bone cells relative to kidney cells (times lower) ([5]; ROS 17/2.8 (bone) versus LLC (kidney) cells, luciferase reporter) | Transcriptional activity in bone cells ([5]; ROS 17/2.8 cells, 16 h after dosing, FIG. 5, result in words) | Transcriptional activity in kidney cells [6, 7] | Transcriptional activity in kidney cells ([6]; listed as 2 MHP)
C=C1/C(=C\C=C2/CCC[C@]3(C)[C@@H]([C@H](C)CCCC(C)(C)O)CC[C@@H]23)C[C@@H](O)C[C@@H]1O [1,25-(OH)2D3, 1α,25-dihydroxyvitamin D3, reference compound] | 5.21 ± 0.73 | 6.85 ± 0.79 | 7.40 ± 0.47 | 7.20 ± 0.33 | 5.42 | 4.51 | – | – | – | – | – | – | – | – | –
C=C1[C@H](O)CC(=C/C=C2\CCC[C@]3(C)[C@@H]([C@@H](C)CCCC(C)(C)O)CC[C@@H]23)C[C@H]1O [2-methylene-19-nor-20(S)-1α,25-dihydroxyvitamin D3] | – | – | – | – | 7.33 | 4.45 | – | – | – | – | – | – | – | – | –
C=C1[C@H](O)CC(=C/C=C2\CCC[C@@]3(C)C2CCC3C(C)C)C[C@H]1O (stereo partly drawn) [2MHP, 1α-hydroxy-2-methylene-19-nor-homopregnacalciferol] | 3.22 ± 0.14 | 3.90 ± 0.38 | 4.84 ± 0.37 | 3.96 ± 0.19 | 4.36 | 4.86 | bound equally well to the porcine receptor as compared to the standard 1,25-(OH)2D3 | slightly less active than 1,25(OH)2D3 | very little activity; also recorded: significantly less than that of 1,25-(OH)2D3 | very little bone calcium mobilization activity; also recorded: significantly less potent than 1,25(OH)2D3 | almost as potent as 1,25(OH)2D3; also recorded: only slightly less active than 1,25-(OH)2D3 | about 10 times | has transcriptional activity in bone cells; also recorded: significant transcriptional activity | greater than or equivalent to 1,25(OH)2D3 | has transcriptional activity in kidney cells; also recorded: significant transcriptional activity
